Reference: patent US4769386A, “Imidazolylthioalkenoic acids and -alkenols and leukotriene antagonistic composition containing them” (Smithkline Beckman Corporation, priority 1986, dated 1988)
Counter-ions that a name gives are not always drawn. Like-named read-outs stand apart in the source and are kept apart here.

Target: T1, leukotriene induced contraction of guinea pig tracheal tissues (LTD4) (Cavia porcellus, UniProt Q2NNR5)
T1 construct: from tissue; host or cells: guinea pig (adult male albino Hartley strain) tracheal spiral strips
T1 sequence (Q2NNR5 1-340): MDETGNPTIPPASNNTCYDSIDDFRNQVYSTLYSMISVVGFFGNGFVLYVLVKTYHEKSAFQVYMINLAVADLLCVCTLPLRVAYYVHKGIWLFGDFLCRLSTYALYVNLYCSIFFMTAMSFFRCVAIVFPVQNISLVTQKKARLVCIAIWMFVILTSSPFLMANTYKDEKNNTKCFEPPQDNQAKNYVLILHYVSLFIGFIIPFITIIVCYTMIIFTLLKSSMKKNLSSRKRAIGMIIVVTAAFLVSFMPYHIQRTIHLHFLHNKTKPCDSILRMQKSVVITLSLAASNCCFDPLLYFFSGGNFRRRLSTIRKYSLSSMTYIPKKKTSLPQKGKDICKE
Experiment: leukotriene (LTD4) induced contraction of guinea pig tracheal spiral strips in vitro, leukotriene antagonist activity
Format: cell-based, guinea pig (adult male albino Hartley strain)
Settings: for In Vitro -Log KB: 30 min
Description: The leukotriene antagonist activity of the compounds of this invention is measured by the ability of the compounds to inhibit the leukotriene induced contraction of guinea pig tracheal tissues in vitro. The following methodology was employed:
In vitro: Guinea pig (adult male albino Hartley strain) tracheal spiral strips of approximate dimensions 2 to 3 mm cross-sectional width and 3.5 cm length were bathed in modified Krebs buffer in jacketed 10 ml tissue bath and continuously aerated with 95% O2 /5% CO2. The tissues were connected via silk suture to force displacement transducers for recording isometric tension. The tissues were equilibrated for 1 hr., pretreated for 15 minutes with meclofenamic acid (1 μM) to remove intrinsic prostaglandin responses, and then pretreated for an additional 30 minutes with either the test compound or vehicle control. A cumulative concentration-response curve for LTD4 on triplicate tissues was generated by successive increases in the bath concentration of the LTD4. In order to minimize intertissue variability, the contractions elicited by LTD4 were standardized as a percentage of the maximum response obtained to a reference agonist, carbachol […].
Calculations: The averages of the triplicate LTD4 concentration-response curves both in the presence and absence of the test compound were plotted on log graph paper. The concentration of LTD4 needed to elicit 30% of the contraction elicited by carbachol was measured and defined as the EC30. The -log KB value for the test compound was determined by the following equations:
2. KB = concentration of test compound/(X-1)

[1] = antagonism of LTD4 contraction, guinea pig trachea, EC30 based (30% of carbachol contraction), meclofenamic acid 1 μM, test compound 30 min pretreatment, KB = concentration of test compound/(X-1), read-out: In Vitro -Log KB (converted)
[2] = method as for the table (LTD4, guinea pig trachea), read-out: -log KB value (converted)
[3] = antagonism of LTD4 contraction, guinea pig trachea, EC30 based (30% of carbachol contraction), meclofenamic acid 1 μM, test compound 30 min pretreatment, KB = concentration of test compound/(X-1)

CCCCCCCCCCCC/C=C\[C@H](Sc1nc(C)c(CCC(=O)O)n1C)[C@H](O)CCC(=O)O (relative stereo) [4-Hydroxy-5-[5-(2-carboxyethyl)-1,4-dimethyl-2-imidazolylthio]-6(Z)-nonadecenoic Acid]
Kb [1]: 1260 nM

CCCCCCCCCCCC/C=C\[C@H](Sc1nc(C)c(C(=O)O)n1C)[C@H](O)CCC(=O)O (relative stereo) [4-Hydroxy-5-(1,4-dimethyl-5-carboxy-2-imidazolylthio)-6(Z)-nonadecenoic acid]
Kb [1]: 126 nM

CCCCCCCCCCCC/C=C\[C@H](Sc1nc(C(C)C)c(C(=O)O)n1C)[C@H](O)CCC(=O)O (relative stereo) [4-Hydroxy-5-(5-carboxy-4-isopropyl-1-methyl-2-imidazolylthio)-6(Z)-nonadecenoic Acid]
Kb [1]: 1260 nM

CCCCCCCCCCCC/C=C\[C@H](Sc1nc(CC)c(C(=O)O)n1C)[C@H](O)CCC(=O)O (relative stereo) [4-Hydroxy-5-(5-carboxy-4-ethyl-1-methyl-2-imidazolylthio)-6-(Z)-nonadecenoic Acid]
Kb [1]: 200 nM

CCCCCCCCCCCC/C=C\[C@H](Sc1nc(C(=O)O)c[nH]1)[C@H](O)CCC(=O)O (relative stereo) [Formula (III), R1 H, R2 --CO2 H, R3 H, 4-Hydroxy-5-[4(5)-carboxy-2-imidazolylthio]-6(Z)-nonadecenoate acid]
Kb [1]: 2000 nM

CCCCCCCCCCCC/C=C\[C@H](Sc1nc(C)c(C)n1C)[C@H](O)CCC(=O)O (relative stereo) [Formula (III), R1 CH3, R2 CH3, R3 CH3, 4-Hydroxy-5-(1,4,5-trimethyl-2-imidazolylthio)-6(Z)-nonadecenoic acid]
Kb [1]: 2510 nM

CCCCCCCCCCCC/C=C\[C@H](Sc1nccn1C)[C@H](O)CCC(=O)O (relative stereo) [Formula (III), R1 CH3, R2 H, R3 H, 4-Hydroxy-5-(1-methyl-2-imidazolylthio)-6(Z)-nonadecenoic acid]
Kb [1]: 1260 nM

CCCCCCCCCCCC/C=C\C(CCCC(=O)O)Sc1ncc(C(=O)O)n1C (stereo not drawn) [5-(1-methyl-5-carboxy-2-imidazolylthio)-6(Z)-nonadecenoic acid]
Kb [1]: 316 nM

CCCCCCCCCCCC/C=C\C(Sc1ncn(C)c1C(=O)O)C(O)CCC(=O)O (stereo not drawn) [Formula (V), R4 CH3, R5 H, R6 --CO2 H, 4-Hydroxy-5-(1-methyl-5-carboxy-4-imidazolylthio)-6(Z)-nonadecenoic acid]
Kb [1]: 200 nM

CCCCCCCCCCCC/C=C\[C@H](Sc1ncc(C(=O)O)n1C)[C@H](O)CCC(=O)O (relative stereo) [Formula (III), R1 CH3, R2 --CO2 H, R3 H, 4-Hydroxy-5-(1-methyl-5-carboxy-2-imidazolylthio)-6(Z)-nonadecenoic acid]
Kb [1]: 158 nM

CCCCCCCCCCCC/C=C\C(Sc1cn(C)cn1)C(O)CCC(=O)O (stereo not drawn) [Formula (V), R4 ^(b) CH3, R5 H, R6 H, 4-Hydroxy-5-(1-methyl-4-imidazolylthio)-6(Z)-nonadecenoic acid, sodium salt]
Kb [1]: 2000 nM

CC(C)=CCCCCCCCCC/C=C\C(Sc1nc(C)c(C(=O)O)n1C)C(O)CCC(=O)O (stereo not drawn) [Example 25, 4-Hydroxy-5-(5-carboxy-1,4-dimethyl-2-imidazolylthio)-18-methyl-6(Z),17-nonadecadienoic Acid]
Kb [2]: 31.6 nM

CCCCCCCCCCCC/C=C\[C@H](Sc1nc(CCC)c(C(=O)O)n1C)[C@H](O)CCC(=O)O (relative stereo) [4-Hydroxy-5-(5-carboxy-1-methyl-4-propyl-2-imidazolylthio)-6(Z)-nonadecenoic Acid]
Kb [1]: 316 nM

CCCCCCCCCCCC/C=C\[C@H](Sc1ncc(C(N)=O)n1C)[C@H](O)CCC(=O)O (relative stereo) [Formula (III), R1 CH3, R2 --CONH2, R3 H, 4-Hydroxy-5-(1-methyl-5-carboxamido-2-imidazolylthio)-6(Z)-nonadecenoic acid]
Kb [1]: 3980 nM

CCCCCCCCCCCC/C=C\[C@H](Sc1nccn1C)[C@H](O)CCCC(=O)O (relative stereo) [Formula (IV), R1 CH3, R2 H, R3 H, 5-Hydroxy-6-(1-methyl-2-imidazolylthio)-7(Z)-eicosenoic acid]
Kb [1]: 1000 nM

C=CCn1ccnc1S[C@@H](/C=C\CCCCCCCCCCCC)[C@H](O)CCC(=O)O (relative stereo) [Formula (III), R1 CH2 =CHCH2, R2 H, R3 H, 4-Hydroxy-5-(1-allyl-2-imidazolylthio)-6(Z)-nonadecenoic acid]
Kb [1]: 5010 nM

CCCCCCCCCCCC/C=C\[C@H](Sc1nc(C)c(CC(=O)O)n1C)[C@H](O)CCC(=O)O (relative stereo) [4-Hydroxy-5-(5-carboxymethyl-1,4-dimethyl-2-imidazolylthio)-6(Z)-nonadecenoic Acid]
Kb [1]: 398 nM

CCCCCCCCCCCC/C=C\[C@H](Sc1nc(CC(=O)O)cn1C)[C@H](O)CCC(=O)O (relative stereo) [4-Hydroxy-5-(1-methyl-4-carboxymethyl-2-imidazolylthio)-6(Z)-nonadecenoic acid]
Kb [1]: 794 nM

CCCCCCCCCCCC/C=C\[C@H](Sc1nccn1CC)[C@H](O)CCC(=O)O (relative stereo) [Formula (III), R1 CH3 CH2, R2 H, R3 H, 4-Hydroxy-5-(1-ethyl-2-imidazolylthio)-6(Z)-nonadecenoic acid, sodium salt]
Kb [1]: 5010 nM

CCCCCCCCCCCC/C=C\C(Sc1nc(C)c(C(=O)O)n1C)C(O)CCC(=O)O (single isomer, unassigned) [Formula (III), R1 ^(a) CH3, R2 --CO2 H, R3 CH3 (first isomer line), 4-Hydroxy-5-(1,4-dimethyl-5-carboxy-2-imidazolylthio)-6(Z)-nonadecenoic acid]
In Vitro -Log KB [3]: 6.9

CCCCCCCCCCCC/C=C\[C@H](Sc1nc(C)c(CC(N)=O)n1C)[C@H](O)CCC(=O)O (relative stereo) [4-Hydroxy-5-(5-Aminocarbonylmethyl-1,4-dimethyl-2-imidazolylthio)-6(Z)-nonadecenoic Acid]
Kb [1]: 631 nM

Cc1nc(SC(/C=C\CCCCCCCCc2ccccc2)C(O)CCC(=O)O)n(C)c1C(=O)O (stereo not drawn) [Example 26, 4-Hydroxy-5-(5-carboxy-1,4-dimethyl-2-imidazolylthio)-15-phenyl-6(Z)-pentadecenoic Acid]
Kb [2]: 251 nM

CCCCCCCCCCCCC#CC(Sc1nc(C)c(C(=O)O)n1C)C(O)CCC(=O)O (stereo not drawn) [4-Hydroxy-5-(1,4-dimethyl-5-carboxy-2-imidazolylthio)-6-nonadecynoic acid]
Kb [1]: 1580 nM

CCCCCCCCCCCC/C=C\C(Sc1nc(C)c(C(=O)O)n1C)C(O)CCC(=O)O (single isomer, unassigned) [Formula (III), R1 ^(a) CH3, R2 --CO2 H, R3 CH3 (second isomer line), 4-Hydroxy-5-(1,4-dimethyl-5-carboxy-2-imidazolylthio)-6(Z)-nonadecenoic acid]
In Vitro -Log KB [3]: 6.8
